Tests used:
Format in all cases: in vivo
[1] = test system: Deer Tick (Ixodes ricinus); test: Potter tower spray bioassay on adult arthropods, mortality; conditions: 1.0 ml/pot, adults, room temperature; % of negative control
Procedure: (§1) The IGR's Methoprene and Diflubenzuron were sources as WHO standard preparations at 20 mg/l technical from WHO, Geneva, and used as positive controls or mixtures (50:50) with 5.0% p-cymene.
(§2) Laboratory colonies of the cat flea (Ctenocephalides felis) and the Deer Tick (Ixodes ricinus) were used in bioassays undertaken at room temperature.
(§3) Bioassays consisted of plastic pots with a netting cover holding batches of 10 adult insects of each species being placed under a potter tower which then sprayed a fine particulate aerosol of even rate. Application rates were always 1.0 ml/pot which is sufficient to wet the inner surface without leaving free liquid residues. After exposure to the treatment or a 5% ethanol control, arthropods were then transferred to a clean plastic holding pot and held at room temperature for 3 days with mortality scored after 24 & 72 hours. Mortality was calculated as % of negative control.

[2] = test system: cat flea (Ctenocephalides felis); test: as above; conditions: 1.0 ml/pot, adults, room temperature; % of negative control
Procedure: as §1, §2, §3

[3] = test system: a range of pests including Musca domestica, Periplaneta Americana, Blatella germanica and others; test: Tests of insecticidal activity of p-cymene against a range of pests; conditions: 15 listed pest species

With Cc1ccc(C(C)C)cc1 [p-cymene] as the compound, how does the 24 hours mortality [1] read?
The 24 hours mortality was 28%.

And the 72 hours mortality [1]?
Its 72 hours mortality is 55%.

And the 24 hours mortality [2]?
Its 24 hours mortality is 76%.

What about the 72 hours mortality [2] of the same compound?
The 72 hours mortality was 88%.

What about the insecticidal activity [3] of the same compound?
The insecticidal activity was “broad spectrum insecticidal activity”.

Reference: patent US20090324509A1, “INSECTICIDAL COMPOSITION” (LIVIE BIOPESTICIDES LIMITED, priority 2006, published 2009)
